Bounds are passed on as bounds.

The compound `COc1cccc(C(F)(F)F)c1NS(=O)(=O)c1nc2nc(O)cc(O)n2n1` came in with a melting point of 237 to 243 °C.
As for `COC(=O)c1cc(C(C)=O)c(C)nc1C1=NC(C)(C(C)C)C(=O)N1` (stereo not given), the figure is 118 to 120 °C; as for `Cc1ccc2c(c1)Cn1nnnc1C(=S)N2`, 293 to 296 °C.
The compound `CC(C)N(CCC(CCN(C(C)C)C(C)C)(C(N)=O)c1ccccc1C(F)(F)F)C(C)C` yielded a melting point of 131 to 132 °C.
As for `CC(=O)NCCn1ccc2ncnc(Nc3ccc(Oc4cccc5sncc45)c(Br)c3)c21`, the figure is 132 to 135 °C.
For `COC(=O)[C@H](O)[C@@H](NS(=O)(=O)c1c2ccccc2cc2ccccc12)c1ccccc1` the value was 98 to 102 °C; for `C=C1CCC(C(=O)OC)Cc2onc(-c3ccc(Cl)cc3)c21` (stereo not given), 113 to 114 °C.
`CN1C(=O)Nc2ccc(Cl)cc2C12NC(=O)NC2=O` (stereo not given): the melting point was greater than 280 °C.
As for `CC1CN(c2cc3c(cc2F)c(=O)c(C(=O)O)c2n3C(C)S2)CCN1C` (stereo not given), the figure is 198 to 201 °C.
As for `CCOC(=O)N1Cc2[nH]c3ccc(F)cc3c2C1`, the figure is 248 to 249 °C; as for `O=C1COCCN1c1ccc(N2C[C@@H](CI)OC2=O)cc1`, 154 to 157 °C.
As for `C(CCCN1CCCNC1)CCCN1CCCNC1`, the figure is 52 to 53 °C; as for `O=C(O)c1ccc(/C=C/C(=O)c2ccc(-c3cccs3)cc2)cc1`, 260 to 265 °C; as for `O=C1Nc2ccccc2N(C(=O)CCN2CCCC2)c2ccc(Cl)cc21`, 167 to 169 °C.
In the case of `COc1cc2c(cc1OC)CC(Nc1ccc(O)cc1)CC2` (stereo not given), the melting point is 150 to 152 °C.
As for `C=CC(=O)NCCCCOc1ccccc1`, the figure is 46 to 47 °C; as for `Nc1sc2c(c1C(=O)c1ccc(I)c3ccccc13)CCC2`, 253 to 255 °C.
In the case of `COc1ccc(-c2cnc(-c3ccc(Cl)cc3)nc2-c2ccc(OC)cc2)cc1`, the melting point was 151 to 153 °C.
The compound `CCC(=C(c1ccccc1)c1ccc(C=Cc2noc(C)n2)cc1)c1ccccc1` yielded a melting point of 158 to 159 °C.
As for `CC(C)(C)OC(=O)Nc1cn(-c2cccnc2)nc1Br`, the figure is 109 to 112 °C; as for `CCCN(C(C)C)C(C)CC1=C(c2ccc(OC)cc2)CCCNC1=O` (stereo not given), 90 to 92 °C.
`CCOC(=O)c1c[nH]c(=S)n1C1CCc2cc(F)cc(F)c2C1` (stereo not given) registered a melting point of 187 to 189 °C.
As for `C=CCc1c(O)ccc2ncccc12`, the figure is 162 to 164 °C.
As for `CC(C)c1nc(-c2cccc3c2OCO3)cc(-c2ccc(F)cc2)c1CO`, the figure is 114 to 115 °C.
As for `O=[N+]([O-])c1ccc(Oc2ccc(Oc3ccc([N+](=O)[O-])cc3)c(P(=O)(c3ccccc3)c3ccccc3)c2)cc1`, the figure is 239 to 242 °C; as for `COC(=O)c1ccccc1/C=C/CO`, 75 to 80 °C; as for `N#Cc1ncn2c1[C@@H]1CCN1C(=O)c1c-2ccc(F)c1Cl`, 225 to 228 °C.
The compound `COC1=C(OC)C(=O)C(CCC(=O)N2CCC[C@H]2C(=O)O)=C(C)C1=O` had a melting point of 131 °C.
For `CCOC(=O)C(C#N)=Cc1cccc(C(F)(F)F)c1Cl` the value was 50 °C; for `OCc1ccc(-c2ccc(CO)cc2)cc1`, 195 to 197 °C; for `CCCCCCCCCCCCCCCCCCOc1cc(OCCOCCOCCOCC)cc(C(=O)O)c1`, 38 to 40 °C.
`Fc1ccc(COc2ccc(CS)cc2)cc1`: the melting point lay in the range of 77 to 80 °C.
Compound `CCOC(=O)c1c(C(F)F)nc(C(F)(F)F)c(C(=O)OCC)c1C1CC1` registered a melting point of 30 to 32 °C.
For `CC(=O)Oc1c(C)c(C=O)nc2ccccc12` the value was 132 to 133 °C; for `O=C(c1cccs1)c1cccc2cc[nH]c12`, 129 to 130 °C; for `CCN(CC)C(=O)OCC1CN(C(=O)c2cc(OC)c(OC)c(OC)c2)CCN1C(=O)c1cc(OC)c(OC)c(OC)c1` (stereo not given), 95.1 °C.
Consider `O=C(O)C1CCc2cc(Cl)c(C3CCCCC3)cc21` (stereo not given), for which the melting point was in the range of 140 to 143 °C.
In turn, `CNC(=O)ON(Cc1ccc(OCc2ccccc2)cc1)C(C)=O` had a melting point of 101 to 102 °C.
For `N#CCCNC(=O)c1cccc(-c2cccc(OC3CCCCC3)n2)c1` the value was 131 to 132 °C; for `O=C(O)c1cc([N+](=O)[O-])cc2ccccc12`, 255 to 257 °C.
For `CCCCCCCCOc1cc(OC)cc(N)c1OCOC` the value was 59 °C; for `Cc1ccc(S(=O)(=O)N2CCCC2c2ccc(F)cc2)cc1` (racemic), 128 °C; for `O=C(O)C1CCN2c3ccc(Cl)cc3Oc3ccccc3C2C1` (stereo not given), 209 to 211 °C.
For `Cc1ccccc1-c1nc2n(c1-c1ccc(C3(NC(=O)OC(C)(C)C)CCC3)c(F)c1)-c1cccnc1Nc1ccccc1-2` the value was 138 to 140 °C; for `CC1Cc2c(C#N)cccc2C1=O` (stereo not given), 101 to 102 °C; for `Cc1ccc(S(=O)(=O)CNCC(CS(=O)(=O)c2ccccc2Oc2ccc(OC(F)(F)F)cc2)N(O)C=O)cc1` (stereo not given), 161 to 162 °C.
In turn, `O=CC1=CCC(C=CC(=O)O)C=C1` (stereo not given) came in with a melting point of 134 to 138 °C.
For `CC(C)(C)c1ccc(NC(=O)c2cccc3cc(Oc4cc(CO)ncn4)ccc23)cc1` the value was 202 to 203 °C; for `COC(COc1ccc(Br)c(C)c1C)OC`, 40 to 41 °C; for `Cc1ncn(Nc2ccccc2)c1-c1ccccc1`, 165 to 167 °C.
As for `CC1(C)COC(=O)N1c1nc(-c2ccc([N+](=O)[O-])cc2)cs1`, the figure is 176 to 179 °C; as for `CC(C(=O)c1ccc2[nH]ccc2c1)N1CCC(O)(c2ccccc2)CC1` (stereo not given), 60 to 70 °C.
For `COc1ccccc1[C@H](c1cccc2ccccc12)[C@@](C)(C#N)C(=O)N1CC=C(c2ccc(Cl)cc2)CC1` the value was 118 to 122 °C; for `Cc1cccc2c(C=C(Br)Br)csc12`, 75 to 78 °C; for `CC1C(=O)N(c2ccccc2)C(=S)N1c1ccc(Oc2ccccc2)cc1` (stereo not given), 141 °C.
`CCC(CC)Oc1ccc(/C=C/C(=O)Nc2ccccc2C(=O)O)cc1OC` returned a melting point of 82 to 85 °C.
Compound `C/C(=C(\C#N)C(N)=S)N1CCCN(c2ccccc2C)CC1` displayed a melting point of 99 to 100 °C.
As for `Cc1cc(C(=O)N2Cc3ccc(C(=O)C(Cl)(Cl)Cl)n3Cc3ccccc32)ccc1I`, the figure is 163 °C; as for `Cc1nc2sc(S(N)(=O)=O)cc2c(=O)n1-c1ccccc1Cl`, 251 °C; as for `COC(=O)c1c(SC)nn(C2CCCC2)c1N`, 88 to 89 °C.
For `COc1ccc(NC(=O)N(O)C2CCCCCCC2)cc1` the value was 166 to 167 °C; for `O=C1OC(=Cc2ccccc2C(F)(F)F)C(O)=C1c1ccc(-c2ccccc2)cc1`, 228 to 230 °C.
As for `CC(=Cc1cccc(O)c1)[N+](=O)[O-]`, the figure is 96 to 98 °C.
`CC(=O)OC1CSC(Oc2cccc(-c3ccc(C)cn3)c2)C(OC(C)=O)C1OC(C)=O` (stereo not given) displayed a melting point of 140 °C.
As for `CC(C)(C)c1cc(CNC(=O)Nc2cccc(C(F)(F)F)c2)nn1-c1ccc(S(C)(=O)=O)cc1`, the figure is 162 to 165 °C; as for `Nc1nc(N)nc(-c2csc(-c3ccc(C(F)(F)F)cc3)n2)n1`, greater than 260 °C.
For `CCOCOCCCOn1cnc2c(=O)[nH]c(N)nc21`, the melting point lay in the range of 242 to 245 °C.
As for `COc1cc2nc(N)nc(-c3cccc(Cl)c3)c2cc1OC`, the figure is 242 to 245 °C.
For `C=CCN1Cc2nc3c(cnn3C=C)c(N)c2C1=O` the value was 190 to 191 °C; for `CS(=O)(=O)C1Cc2cc(Cl)ccc2C1=O` (stereo not given), 197 °C; for `CC(C)(C)C(=O)Cn1ccnc1`, 20 °C.
As for `CN(C)N=C1CCC2C3CCc4cc(O[Si](C)(C)C(C)(C)C)ccc4C3CCC12C` (stereo not given), the figure is 100 to 103 °C; as for `CSc1nn(-c2c(Cl)cc(Cl)cc2Cl)c(N(C)C)c1CO`, 108 to 110 °C; as for `O=c1c2ccccc2n(CCc2ccccc2)c(=O)n1S(=O)(=O)c1ccc(Cl)cc1`, 200 to 202 °C.
In the case of `CCC(=O)N[C@H]1CC[C@H](CCN2CCN(c3nccc4c3CCO4)CC2)CC1`, the melting point worked out at 192 °C.
Compound `Cc1ccc(C(=O)O)c(Sc2nc(C)c(CC(=O)O)s2)n1` showed a melting point of 223 to 225 °C.
For `COc1cccc(CN2CCN(CC(=O)N3CC=C(c4ccccc4)n4ncc(C#N)c43)CC2)c1` the value was 98 to 100 °C.
For `Cc1cccc(CON2C(C)(C)CC(O)CC2(C)C)c1` the value was 66 to 67 °C.
With `CC(=O)Oc1ccc(C(=O)Oc2ccc(C(=O)O)cc2)cc1C12CC3CC(CC(C3)C1)C2`, the melting point fell in the range of 264 to 265 °C.
`CCC(=O)OCC1(C)OCC2(CO1)COC(C)(COC(=O)CC)OC2` (stereo not given) registered a melting point of 55 to 56 °C.
As for `O=C(Nc1cccc(C(=O)Nc2ccccc2)c1)Nc1nnc(-c2cc(Cl)cc(Cl)c2O)s1`, the figure is 298 °C; as for `O=C1CC(Cl)C(=O)N1C1CCCCC1` (stereo not given), 63 to 64 °C.
For `O=C1N(c2ccccc2)c2ccccc2C1(Cc1ccccc1)Cc1ccncc1` (stereo not given) the value was 127 to 128 °C.
As for `CC1(C)CCC(C)(C)c2cc(C#Cc3ccc(C(N)=O)cc3)ccc21`, the figure is 220 to 223 °C; as for `O=C(CCNC(=O)[C@H](Cc1ccc(-c2ccccc2)cc1)NCP(=O)(O)Oc1ccccc1)OCc1ccccc1`, 243 to 244 °C.
The compound `OC(c1ccc(OCc2ccccc2)cc1)C(F)(F)F` (stereo not given) registered a melting point of 115 to 117 °C.
For `COC(=O)Cc1ccc(OCCNC(=O)C2Cc3ccccc3N2S(=O)(=O)c2ccc(-c3cc(C(F)(F)F)ccc3F)cc2)cc1` (stereo not given) the value was 52 to 55 °C.
As for `Ic1cccc2c1CCOC2`, the figure is 54 to 56 °C; as for `OC(c1ccc(Oc2ccc(Cl)cc2Cl)cc1)C(F)n1cncn1` (stereo not given), 107 to 108 °C; as for `Cc1ccc(COc2cc(C(O)C#Cc3ccc(C(=O)O)cc3)cc3c2C(C)(C)CCC3(C)C)cc1` (stereo not given), 219 °C.

These data come from a melting point compilation (Tetko et al.; mined from patent text by program, amines drawn as free bases though some values may be those of a salt).
